Test results reported in US20240336654A1, “ANTIMICROBIAL PEPTIDOMIMETICS” (SPEXIS AG, priority 2021, published 2024).
Where two headings read alike, the source gives them in different places. Where a SMILES comes first, the peptide text is derived from it. Bridges are numbered along the chain shown (N, C = ends). Where no end group is shown, it is not given here. [ ]: non-standard residue; d: D form. The star is where a group is joined. Val(Nα-amidino) = CC(C)[C@H](NC(=N)N)C(=O)*; Hyp = O=C(O)[C@@H]1C[C@@H](O)CN1; Pen = CC(C)(S)[C@H](N)C(=O)O; dDab = NCC[C@@H](N)C(=O)O; Dab = NCC[C@H](N)C(=O)O

What was measured:
Format in all cases: cell-based
[1] = test system: Escherichia coli ATCC 25922
Procedure, shortened: (§1)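 The MIC is the lowest peptide concentration, in μg/mL, with no visible growth after 18-20 h incubation at 35 °C. Serial two-fold peptide dilutions in water with 0.002% P-80 final were added to bacteria in cation-adjusted MHII broth, about 5×10^5 CFU/mL, following modified CLSI microdilution.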

[2] = test system: Escherichia coli MCR-1 Af 45
Procedure, shortened: as §1

[3] = test system: Klebsiella pneumoniae SSI3010
Procedure, shortened: as §1

[4] = test system: human red blood cells (hRBC)
Procedure, shortened: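 Percent hemolysis derived from OD540 of supernatants relative to full lysis by 2.5% Triton X-100 (PBS baseline). Washed fresh human erythrocytes (20% v/v) were exposed to 200 μg/mL peptide for 1 h at 37 °C with shaking.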

[5] = Mueller-Hinton broth II, no visible growth after 18-20 hours at 35° C.

| Compound | Escherichia coli ATCC 25922 MIC ([1]; ATCC 25922) | Escherichia coli MCR-1 Af45 MIC ([2]; MCR-1 Af 45) | Klebsiella pneumoniae SSI3010 MIC ([3]; SSI3010) | Hemolysis at 0.2 g/L ([4]; red cells of human, 1 h, 200 μg/mL) | Escherichia coli ATCC 25922 MIC [1, 5] | Escherichia coli MCR-1 Af45 MIC [2, 5] | Klebsiella pneumoniae SSI3010 MIC [3, 5] | Hemolysis at 0.2 g/L [4] |
| --- | --- | --- | --- | --- | --- | --- | --- | --- |
| CC[C@H](C)[C@H](NC(=O)[C@@H]1C[C@@H](O)CN1C(=O)[C@@H](NC(=N)N)C(C)C)C(=O)N[C@H]1CCNC(=O)CC[C@@H](C(=O)N[C@@H](Cc2ccc(O)cc2)C(=O)O)NC(=O)[C@H](CCN)NC(=O)[C@H](CCN)NC(=O)[C@H](C(C)C)NC(=O)[C@@H](CCN)NC(=O)[C@H]([C@@H](C)O)NC(=O)[C@H](CCN)NC(=O)[C@H](CCCNC(=N)N)NC(=O)[C@H](CC(N)=O)NC(=O)[C@H]([C@@H](C)O)NC(=O)[C@H](Cc2ccc(O)cc2)NC1=O [Example 136, Gua-Val-Hyp-Ile-Dab-Tyr-Thr-Asn-Arg-Dab-Thr-^DDab-Val-Dab-Dab-Glu-Tyr] ({Val(Nα-amidino)}-[Hyp]I[Dab]YTNR[Dab]T[dDab]V[Dab][Dab]EY-OH; lactam 3-14) | 0.125 mg/L | 0.125 mg/L | 0.5 mg/L | <1% | – | – | – | – |
| Val-Hyp-Ile-Pen-Tyr-Ser-Asn-Arg-Dab-Thr-^DDab-Lys-Dab-Ser-Cys-Tyr (V[Hyp]I[Pen]YSNR[Dab]T[dDab]K[Dab]SCY; disulfide 4-15) [Example 57] | – | – | – | – | 0.25 mg/L | 0.25 mg/L | 0.5 mg/L | <1% |
